Reference: US20230136600A1, “Method and device for screening antigen epitope polypeptide” (priority 2020, published 2023)

Test system: Balb/c mice
Assay: Detection of peptide immunogenicity by polypeptide chip: vaccine peptide-specific signal sequencing (timing-sequence response, Fisher exact test)
Assay type: in vivo
Settings: Embodiment IV; 7-peptide mixed solution with adjuvant: Mix 1 AddaVax, 2 Imject Alumn, 3 Alhydrogel, 4 Adju-Phos, 5 MA103A, 6 MA103B

| Substance | #A timing-sequence response peptide fragment set | #B vaccine specificity peptide fragment set | Intersection of A and B | Mode I | Mode II |
| --- | --- | --- | --- | --- | --- |
| 4 (ALDPLSETKCT; SARS-CoV-2) [compound 4] | 203 | 1244 | 0 | 23 | 183 |
| 5 (GRLQSLQTY; SARS-CoV-2) [compound 5] | 260 | 1244 | 3 | 102 | 171 |
